Legend:
[1] = test system: L5178-S (LY-S) murine lymphoma tumors; assay: Detection by DDC of tumor cell apoptosis in lymphoma-bearing mice after Taxol; type: in vivo; conditions: Taxol 20 mg/kg treated vs control animals; DDC i.v. 24 h after Taxol, sacrifice 2 h later
Protocol: (§1) A. Administration of DDC in-vivo: Injection of 200 μl of DDC intravenously. Following 1-2 hours, animal is sacrificed, and the desired organ is placed in a test tube or on a small plate, suitable for liquid nitrogen freezing. The plate is then covered with an aluminum foil, and transferred to liquid nitrogen. Following 5-30 minutes the specimen is being frozen to −80° C. and kept at −80° C. for at least 16 hr. B. Analysis of the Specimen: • a. Whole organ imaging Ex-vivo whole organ fluorescence imaging may be carried out on freshly excised specimen, that can be analyzed under a stereomicroscope (such as Leica MZ FL III, Leica Switzerland). DDC may be visualized using 360cx and >420cm nm filter set. Emitted fluorescence can be imaged using appropriate camera and software, such as a Leica DC 300F Distal camera and images can be processed and analyzed by Leica QWin Lite software. • b. Histological analysis, from the frozen organ or tissue, 4 μm cryosections are prepared on slides. Analysis of the tissue sections can be performed using a fluorescence microscope with a UV filter characterized by excitation at 360-370 nm (band pass) and emission at 420 nm (barrier filter) In case that staining of the examined tissue is desired, the following procedures can be applied: […]

[2] = test system: C26 colon carcinoma tumors; assay: DDC binding versus TUNEL and H&E in colon carcinoma after Doxorubicin; type: in vivo, mice; conditions: 48 h after Doxorubicin 20 mg/kg; consecutive slides
Protocol: as §1

BCL1 bone marrow cells = assay: Detection by DDC of apoptosis in BCL1 bone marrow cells following chemotherapy; type: in vivo, mice
Protocol: as §1

[3] = test system: cardiomyocytes of the ischemic heart; assay: Detection by DDC of ischemic damage in the heart following ischemia-reperfusion; type: in vivo, mice; conditions: ischemia 40 minutes, reperfusion 90 minutes; DDC at onset of ischemia
Protocol: Ischemia/Reperfusion was induced in male Swiss mice by ligation and subsequent release of a suture around the left anterior descending coronary artery. Ischemia was for 40 minutes followed by reperfusion of 90 minutes. DDC was injected to the Jugular vein at the onset of ischemia. Uptake of DDC was followed at real time in the beating heart using a Laica stereomycroscope. Pictures were taken at the end point of the reperfusion (90 minutes) and collected by Hamamatsu CCD camera. For inhibition by caspase inhibitors, animals were injected with a pan-Caspase inhibitor in two doses of 10 mg/kg given at the time of reperfusion. […] Figures (C) and (D) Cryosections prepared from the heart that was collected at the end point of the experiments DDC fluorescence can be viewed in single apoptotic cardiomyocites. This example support the role of DDC in detecting ischemic cells in the level of a single apoptotic cell.

cardiomyocytes = assay: Focal uptake of DDC in heart following sepsis (CLP); type: in vivo, mice; conditions: 24 h after cecal ligature and perforation
Protocol: A. Administration of DDC in-vivo: Injection of 200 μl of DDC intravenously. Following 1-2 hours, animal is sacrificed, and the desired organ is placed in a test tube or on a small plate, suitable for liquid nitrogen freezing. The plate is then covered with an aluminum foil, and transferred to liquid nitrogen. Following 5-30 minutes the specimen is being frozen to −80° C. and kept at −80° C. for at least 16 hr. B. Analysis of the Specimen: • a. Whole organ imaging Ex-vivo whole organ fluorescence imaging may be carried out on freshly excised specimen, that can be analyzed under a stereomicroscope (such as Leica MZ FL III, Leica Switzerland). DDC may be visualized using 360cx and >420cm nm filter set. Emitted fluorescence can be imaged using appropriate camera and software, such as a Leica DC 300F Distal camera and images can be processed and analyzed by Leica QWin Lite software. • b. Histological analysis, from the frozen organ or tissue, 4 μm cryosections are prepared on slides. Analysis of the tissue sections can be performed using a fluorescence microscope with a UV filter characterized by excitation at 360-370 nm (band pass) and emission at 420 nm (barrier filter) In case that staining of the examined tissue is desired, the following procedures can be applied:
The cecum of anesthetized mice was isolated, ligated distal to the ileocaecal valve, and punctured twice with 26-gauge needle. […]

CN(C)c1cccc2c(S(=O)(=O)NC(CSSCC(NS(=O)(=O)c3cccc4c(N(C)C)cccc34)C(=O)O)C(=O)O)cccc12 (stereo not drawn) [DDC]
DDC uptake into tumors [1]: marked increase of DDC uptake
correlation of DDC staining with H&E and TUNEL staining [2]: highly correlated with both H&E (C) and TUNEL (B) staining
fluorescent labeling of bone marrow cells (BCL1 bone marrow cells; 24 hr following Cyclophosphamide 300 mg/kg and Taxol 20 mg/kg): a significant number of apoptotic/necrotic cells are labeled
fluorescent labeling of bone marrow cells (BCL1 bone marrow cells; non-treated group): no fluorescent labeling
uptake of DDC in cardiomyocytes [3]: identified in individual cadiomyocites
fluorescence of DDC in cardiomyocytes following sepsis (cardiomyocytes): can be seen in single cardiomyocites
